Test: Stability of the crystal modification (thermodynamic and storage stability)
Type: physicochemical
Details: for thermodynamic stability of the crystal modification: solid form of the compound of the formula (I)

Row | storage stability (even after processing to suspensions) | thermodynamic stability of the crystal modification | Compound
1 | storage-stable | thermodynamically stable | O=C(O)CCCCN(CCc1ccccc1OCc1ccc(CCc2ccccc2)cc1)Cc1ccc(C(=O)O)cc1 [modification I, 4-({(4-carboxybutyl)[2-(2-{[4-(2-phenylethyl)benzyl]oxy}phenyl)ethyl]amino}-methyl)benzoic acid]
2 | – | metastable | O=C(O)CCCCN(CCc1ccccc1OCc1ccc(CCc2ccccc2)cc1)Cc1ccc(C(=O)O)cc1 [modification IV, 4-({(4-Carboxybutyl)[2-(2-{[4-(2-phenylethyl)benzyl]oxy}phenyl)ethyl]amino}methyl)benzoic acid]

Reference: patent US20120010292A1, “MODIFICATION I OF 4-(PHENYL)ETHYL]-AMINO}METHYL)BENZOIC ACID” (BAYER SCHERING PHARMA AKTIENGESELLSCHAFT, priority 2008, published 2012)
